Laboratory results reported in patent publication US20250221998A1, “DISCOVERY OF COVALENT EGFR INHIBITOR THROUGH CYSTEINE 775” (Dana-Farber Cancer Institute, Inc., priority 2022, published 2025).

Experiments:
[1] = target: EGFR mutant L858R Ba/F3 cells (Homo sapiens, UniProt P00533, L858R, cells depend on it); assay: Ba/F3 cell proliferation (Cell Titer Glo), EGFR L858R; assay type: cell-based, murine; conditions: 72 hours exposure, read-out: L858R BaF3 (μM), inhibitory activity against EGFR mutants
From the text: (§1) The EGFR mutant L858R Ba/F3 cells have been previously described (Zhou, W., et al. Nature 462, 2009, 1070-1074). The EGFR C797S and C775S mutations were introduced via site directed mutagenesis using the Quick Change Site-Directed Mutagenesis kit into a vector containing EGFR L858R mutation (Stratagene; La Jolla, CA) according to the manufacturer's instructions. All constructs were confirmed by DNA sequencing. The constructs were then shuttled into the retroviral vector JP1540 by either using the Cre-recombination system (Agilent Technologies, Santa Clara, CA) or the In-fusion HD Cloning kit (Takara Bio USA, Inc.; Mountain view, CA). Ba/F3 cells were then infected with retrovirus per standard protocols, as described previously (Zhou, et al, Nature 2009). Stable clones were obtained by selection in puromycin (2 ug/ml). All BaF/3 mutant cells were maintained in RPMI 1640 (Cellgro; Mediatech Inc., Herndon, CA) supplemented with 10% FBS, 100 units/mL penicillin, 100 units/mL streptomycin.
(§2) Growth and inhibition of growth was assessed by the Cell Titer Glo assay (Promega, Madison, WI) and was performed according to the manufacturer's instructions. The Cell Titer Glo assay is a luminescence-based method used to determine the number of viable cells based on quantitation of the ATP present, which is directly proportional to the amount of metabolically active cells present. Ba/F3 cells of different EGFR genotypes were exposed to compounds for 72 hours and the number of cells used per experiment was determined empirically as has been previously established (Zhou, et al., Nature 2009). All experimental points were set up in triplicates in 384-well plates. […] The curves were fitted using a non-linear regression model with a sigmoidal dose response.
(§3) For inhibitory activity against EGFR mutants, the following designations are used: ≤0·25 μM=A, 0·25 μM˜0.5 μM=B, 0.5 μM˜2.5 μM=C, ≥2.5 μM=D.

[2] = target: EGFR L858R/C797S Ba/F3 cells (Homo sapiens, UniProt P00533, C797S/L858R, cells depend on it); assay: Ba/F3 cell proliferation (Cell Titer Glo), EGFR L858R/C797S; assay type: cell-based, murine; conditions: 72 hours exposure, read-out: L858R/C797S (μM), inhibitory activity against EGFR mutants
From the text: as §1, §2, §3

EGFR L858R/C797S Ba/F3 cells, sequence (P00533 whole entry C797S/L858R): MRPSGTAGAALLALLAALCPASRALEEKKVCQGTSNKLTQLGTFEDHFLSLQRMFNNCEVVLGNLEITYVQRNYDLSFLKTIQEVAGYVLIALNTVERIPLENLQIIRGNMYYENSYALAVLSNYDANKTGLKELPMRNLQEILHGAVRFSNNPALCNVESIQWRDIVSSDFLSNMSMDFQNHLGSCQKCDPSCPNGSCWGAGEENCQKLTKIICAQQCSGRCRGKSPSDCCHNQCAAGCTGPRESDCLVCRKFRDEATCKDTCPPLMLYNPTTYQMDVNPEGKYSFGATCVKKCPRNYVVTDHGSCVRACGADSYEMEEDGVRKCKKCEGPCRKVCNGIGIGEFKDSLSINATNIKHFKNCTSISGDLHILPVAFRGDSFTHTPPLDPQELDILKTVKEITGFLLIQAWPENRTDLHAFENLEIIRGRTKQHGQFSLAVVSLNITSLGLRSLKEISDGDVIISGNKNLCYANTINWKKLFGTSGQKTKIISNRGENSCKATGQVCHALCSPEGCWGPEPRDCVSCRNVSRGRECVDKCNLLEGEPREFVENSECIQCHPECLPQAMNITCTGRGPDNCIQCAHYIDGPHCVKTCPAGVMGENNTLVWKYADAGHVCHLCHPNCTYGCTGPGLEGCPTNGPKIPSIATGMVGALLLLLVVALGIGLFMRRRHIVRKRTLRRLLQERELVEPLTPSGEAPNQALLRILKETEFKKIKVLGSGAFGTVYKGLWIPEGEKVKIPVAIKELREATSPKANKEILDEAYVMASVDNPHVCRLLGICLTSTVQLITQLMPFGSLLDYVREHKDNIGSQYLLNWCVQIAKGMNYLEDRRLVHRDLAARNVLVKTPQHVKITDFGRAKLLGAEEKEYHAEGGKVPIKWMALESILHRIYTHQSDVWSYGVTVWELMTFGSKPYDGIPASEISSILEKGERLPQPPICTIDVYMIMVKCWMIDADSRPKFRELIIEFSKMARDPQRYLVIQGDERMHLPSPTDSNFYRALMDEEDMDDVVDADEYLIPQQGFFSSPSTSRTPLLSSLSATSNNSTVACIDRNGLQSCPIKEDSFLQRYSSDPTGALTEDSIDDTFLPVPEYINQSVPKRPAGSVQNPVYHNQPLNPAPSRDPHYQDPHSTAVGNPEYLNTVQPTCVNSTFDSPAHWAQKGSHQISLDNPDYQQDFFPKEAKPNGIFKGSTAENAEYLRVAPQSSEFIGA
EGFR mutant L858R Ba/F3 cells, sequence (P00533 whole entry L858R, the tested form may be a part): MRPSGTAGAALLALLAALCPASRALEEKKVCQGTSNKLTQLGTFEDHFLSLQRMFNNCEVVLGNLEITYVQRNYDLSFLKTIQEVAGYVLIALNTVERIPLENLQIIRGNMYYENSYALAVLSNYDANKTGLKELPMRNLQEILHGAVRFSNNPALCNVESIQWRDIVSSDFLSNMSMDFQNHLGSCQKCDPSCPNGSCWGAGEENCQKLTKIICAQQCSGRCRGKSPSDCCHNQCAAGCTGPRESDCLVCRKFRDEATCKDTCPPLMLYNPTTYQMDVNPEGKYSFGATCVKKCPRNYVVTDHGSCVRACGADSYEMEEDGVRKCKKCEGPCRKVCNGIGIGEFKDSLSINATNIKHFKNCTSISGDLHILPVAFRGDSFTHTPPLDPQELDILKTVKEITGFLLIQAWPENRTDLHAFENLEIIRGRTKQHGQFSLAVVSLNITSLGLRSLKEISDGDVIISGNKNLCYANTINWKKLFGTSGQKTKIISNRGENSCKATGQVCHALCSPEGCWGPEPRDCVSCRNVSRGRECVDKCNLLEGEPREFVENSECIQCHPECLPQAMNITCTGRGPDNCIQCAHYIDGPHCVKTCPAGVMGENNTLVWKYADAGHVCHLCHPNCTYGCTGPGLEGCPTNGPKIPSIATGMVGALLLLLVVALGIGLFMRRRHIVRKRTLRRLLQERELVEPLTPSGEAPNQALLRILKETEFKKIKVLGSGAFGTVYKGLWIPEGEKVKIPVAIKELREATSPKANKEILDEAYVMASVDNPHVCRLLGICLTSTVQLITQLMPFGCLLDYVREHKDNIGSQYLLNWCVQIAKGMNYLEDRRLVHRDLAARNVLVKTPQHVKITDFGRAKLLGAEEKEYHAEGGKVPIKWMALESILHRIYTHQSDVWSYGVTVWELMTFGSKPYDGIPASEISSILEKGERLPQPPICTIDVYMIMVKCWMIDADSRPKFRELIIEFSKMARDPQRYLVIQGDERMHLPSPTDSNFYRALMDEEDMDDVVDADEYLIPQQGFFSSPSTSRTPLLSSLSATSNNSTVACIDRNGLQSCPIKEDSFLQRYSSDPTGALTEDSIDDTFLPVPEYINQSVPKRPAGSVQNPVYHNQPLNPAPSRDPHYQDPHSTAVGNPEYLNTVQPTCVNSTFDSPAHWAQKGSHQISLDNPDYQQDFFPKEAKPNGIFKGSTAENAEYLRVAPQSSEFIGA

Row | SMILES | GI50 [1] | GI50 [2]
1 | C=CC(=O)N1CCN(c2cc3cnc(N)nc3n(-c3ccc(N4CCOCC4)cc3)c2=O)c2cccc(C)c21 [Compound 089, 2-amino-6-(5-methyl-4-prop-2-enoyl-2,3-dihydroquinoxalin-1-yl)-8-(4-morpholinophenyl)pyrido[2,3-d]pyrimidin-7-one] | ≤ 0.25 µM | ≤ 0.25 µM
2 | C=CC(=O)N1CCN(c2cc3cnc(Nc4cc5n(c4)CCN(C)C5)nc3n(C)c2=O)c2cccc(C)c21 [Compound 085, 8-methyl-2-[(2-methyl-3,4-dihydro-1H-pyrrolo[1,2-a]pyrazin-7-yl)amino]-6-(5-methyl-4-prop-2-enoyl-2,3-dihydroquinoxalin-1-yl)pyrido[2,3-d]pyrimidin-7-one] | ≥ 2.5 µM | ≥ 2.5 µM
3 | C=CC(=O)N1CCN(c2cc3cnc(N)nc3n(-c3ccc(OCCN(C)C)c(F)c3)c2=O)c2cccc(C)c21 [Compound 104, 2-amino-8-[4-[2-(dimethylamino)ethoxy]-3-fluoro-phenyl]-6-(5-methyl-4-prop-2-enoyl-2,3-dihydroquinoxalin-1-yl)pyrido[2,3-d]pyrimidin-7-one] | ≤ 0.25 µM | ≤ 0.25 µM
4 | C=CC(=O)N1CCN(c2cc3cnc(Nc4ccc(N5CCN(C)CC5)cc4)nc3n(C3CC(O)C3)c2=O)c2cccc(C)c21 (stereo not shown) [Compound 046, 8-(3-hydroxycyclobutyl)-2-[4-(4-methylpiperazin-1-yl)anilino]-6-(5-methyl-4-prop-2-enoyl-2,3-dihydroquinoxalin-1-yl)pyrido[2,3-d]pyrimidin-7-one] | ≤ 0.25 µM | ≤ 0.25 µM
5 | C=CC(=O)N1CCN(c2cc3cnc(Nc4ccc(OCCN(C)C)cc4)nc3n([C@H]3C[C@@](C)(O)C3)c2=O)c2cccc(C)c21 [Compound 056, 2-[4-[2-(dimethylamino)ethoxy]anilino]-8-((1s,3s)-3-hydroxy-3-methyl-cyclobutyl)-6-(5-methyl-4-prop-2-enoyl-2,3-dihydroquinoxalin-1-yl)pyrido[2,3-d]pyrimidin-7-one] | ≤ 0.25 µM | ≤ 0.25 µM
6 | C=CC(=O)N1CCN(c2cc3cnc(N)nc3n(-c3ccc(OC4COC4)cc3)c2=O)c2cccc(C)c21 [Compound 093, 2-amino-6-(5-methyl-4-prop-2-enoyl-2,3-dihydroquinoxalin-1-yl)-8-[4-(oxetan-3-yloxy)phenyl]pyrido[2,3-d]pyrimidin-7-one] | ≤ 0.25 µM | 0.25 to 0.5 µM
7 | C=CC(=O)N1CC2CCN(c3cc4cnc(Nc5ccc(N6CCN(C)CC6)cc5)nc4n(C)c3=O)C[C@@H]2C1 (stereo partly shown) [Compound 023, 8-methyl-2-[4-(4-methylpiperazin-1-yl)anilino]-6-(2-prop-2-enoyl-3,3a,4,6,7,7a-hexahydro-1H-pyrrolo[3,4-c]pyridin-5-yl)pyrido[2,3-d]pyrimidin-7-one] | ≥ 2.5 µM | ≥ 2.5 µM
8 | C=C(F)C(=O)NC1CCN(c2cc3cnc(Nc4cnn(CCO)c4)nc3n(C)c2=O)CC1 [Compound 018] | ≥ 2.5 µM | ≥ 2.5 µM
9 | C=CC(=O)N1CCN(c2cc3cnc(N)nc3n(-c3cccc(O)c3)c2=O)c2cccc(C)c21 [Compound 098, 2-amino-8-(3-hydroxyphenyl)-6-(5-methyl-4-prop-2-enoyl-2,3-dihydroquinoxalin-1-yl)pyrido[2,3-d]pyrimidin-7-one] | 0.25 to 0.5 µM | 0.5 to 2.5 µM
10 | C=CC(=O)N1CCN(c2cc3cnc(N)nc3n(-c3cccc(Cl)c3)c2=O)c2cccc(C)c21 [Compound 091, 2-amino-8-(3-chlorophenyl)-6-(5-methyl-4-prop-2-enoyl-2,3-dihydroquinoxalin-1-yl)pyrido[2,3-d]pyrimidin-7-one] | ≤ 0.25 µM | 0.25 to 0.5 µM
11 | C=CC(=O)N1CCN(c2cc3cnc(Nc4cnn(CCS(C)(=O)=O)c4)nc3n(C)c2=O)c2cccc(C)c21 [Compound 041] | ≤ 0.25 µM | 0.25 to 0.5 µM
12 | C=CC(=O)N1CCN(c2c(F)c3cnc(Nc4ccc(N5CCN(C)CC5)cc4)nc3n(C)c2=O)c2cccc(C)c21 [Compound 054, 5-fluoro-8-methyl-2-[4-(4-methylpiperazin-1-yl)anilino]-6-(5-methyl-4-prop-2-enoyl-2,3-dihydroquinoxalin-1-yl)pyrido[2,3-d]pyrimidin-7-one] | ≤ 0.25 µM | ≤ 0.25 µM
13 | C=CC(=O)N1CCN(c2cc3cnc(Nc4ccc(OCCN(C)C)cc4)nc3n(C)c2=O)c2cccc(OC)c21 [Compound 074] | ≤ 0.25 µM | ≤ 0.25 µM
14 | C=CC(=O)N1CCN(c2cc3cnc(Nc4cc5c(cc4F)CCN(C)C5)nc3n(C)c2=O)c2cccc(C)c21 [Compound 061, 2-[(6-fluoro-2-methyl-3,4-dihydro-1H-isoquinolin-7-yl)amino]-8-methyl-6-(5-methyl-4-prop-2-enoyl-2,3-dihydroquinoxalin-1-yl)pyrido[2,3-d]pyrimidin-7-one] | ≤ 0.25 µM | ≤ 0.25 µM
15 | CCC(=O)N1CCN(c2cc3cnc(Nc4ccc(N5CCN(C)CC5)cc4)nc3n(C)c2=O)c2cccc(C)c21 [Compound 026] | 0.5 to 2.5 µM | 0.5 to 2.5 µM
16 | C=CC(=O)N1CCN(c2cc3cnc(Nc4ccc(N5CCN(C)CC5)cc4F)nc3n(C)c2=O)c2cccc(C)c21 [Compound 036] | ≤ 0.25 µM | ≤ 0.25 µM
17 | C=CC(=O)N1CCN(c2cc3cnc(Nc4ccc(OCCN(C)C)cc4)nc3n(-c3cccnc3)c2=O)c2cccc(C)c21 [Compound 067] | ≤ 0.25 µM | ≤ 0.25 µM
18 | C=CC(=O)N1CCN(c2cc3cnc(Nc4ccc(CS(=O)(=O)NC)cc4)nc3n(C)c2=O)c2cccc(O)c21 [Compound 053] | ≤ 0.25 µM | 0.25 to 0.5 µM
19 | C=CC(=O)N1CCN(c2cc3cnc(N)nc3n(-c3ccc(CN4CCN(C)CC4)cc3)c2=O)c2cccc(C)c21 [Compound 103, 2-amino-8-[4-[(4-methylpiperazin-1-yl)methyl]phenyl]-6-(5-methyl-4-prop-2-enoyl-2,3-dihydroquinoxalin-1-yl)pyrido[2,3-d]pyrimidin-7-one] | 0.25 to 0.5 µM | 0.5 to 2.5 µM
20 | C=CC(=O)N1CCN(c2cc3cnc(NC4CC4)nc3n(C3CCOC3)c2=O)c2cccc(C)c21 (stereo not shown) [Compound 096, 2-(cyclopropylamino)-6-(5-methyl-4-prop-2-enoyl-2,3-dihydroquinoxalin-1-yl)-8-tetrahydrofuran-3-yl-pyrido[2,3-d]pyrimidin-7-one] | ≤ 0.25 µM | ≤ 0.25 µM
21 | C=CC(=O)N1CCN(c2cc3cnc(Nc4ccc(OC5CN(S(C)(=O)=O)C5)cc4)nc3n(C)c2=O)c2cccc(C)c21 [Compound 049] | ≤ 0.25 µM | ≤ 0.25 µM
22 | C=CC(=O)N1CCN(c2cc3cnc(Nc4ccc(N5CCN(C)CC5)cc4)nc3n(C)c2=O)C2(CC2)C1 [Compound 012, 8-methyl-2-[4-(4-methylpiperazin-1-yl)anilino]-6-(7-prop-2-enoyl-4,7-diazaspiro[2.5]octan-4-yl)pyrido[2,3-d]pyrimidin-7-one] | ≥ 2.5 µM | ≥ 2.5 µM
23 | C=CC(=O)N1CCN(c2cc3cnc(Nc4ccc(N5CCN(C)CC5)cc4)nc3n(C)c2=O)c2cccc(N)c21 [Compound 065, 6-(5-amino-4-prop-2-enoyl-2,3-dihydroquinoxalin-1-yl)-8-methyl-2-[4-(4-methylpiperazin-1-yl)anilino]pyrido[2,3-d]pyrimidin-7-one] | ≤ 0.25 µM | ≤ 0.25 µM
24 | C=CC(=O)N1CCN(c2cc3cnc(Nc4cnn(CCO)c4)nc3n(C)c2=O)c2cccc(OC)c21 [Compound 020, 2-[[1-(2-hydroxyethyl)pyrazol-4-yl]amino]-6-(5-methoxy-4-prop-2-enoyl-2,3-dihydroquinoxalin-1-yl)-8-methyl-pyrido[2,3-d]pyrimidin-7-one] | ≤ 0.25 µM | 0.25 to 0.5 µM
25 | C=CC(=O)N1CCN(c2c(F)c3cnc(Nc4ccc(N5CCN(C)CC5)cc4)nc3n(C)c2=O)c2c(F)cc(F)c(C)c21 [Compound 059, 6-(6,8-difluoro-5-methyl-4-prop-2-enoyl-2,3-dihydroquinoxalin-1-yl)-5-fluoro-8-methyl-2-[4-(4-methylpiperazin-1-yl)anilino]pyrido[2,3-d]pyrimidin-7-one] | ≤ 0.25 µM | ≤ 0.25 µM
26 | C=C(F)C(=O)N1CCN(c2cc3cnc(Nc4cnn(CCO)c4)nc3n(C)c2=O)c2ccccc21 [Compound 013, 6-[4-(2-fluoroprop-2-enoyl)-2,3-dihydroquinoxalin-1-yl]-2-[[1-(2-hydroxyethyl)pyrazol-4-yl]amino]-8-methyl-pyrido[2,3-d]pyrimidin-7-one] | ≤ 0.25 µM | 0.25 to 0.5 µM
